# pIC50: −log10 of the molar value.
# Tests used:
# OATP1B1 [1] = molecular target: T1, OATP1B1 (Homo sapiens, UniProt Q9Y6L6); assay type: cell-based; details: for Reduction of OATP1B1 function: overexpressing HEK293 cells, 10 μM TKI screen; for Mechanism of OATP1B1 inhibition: kinetic analysis (Dixon plot) and pre-incubation effects
# T1 sequence (Q9Y6L6 1-691): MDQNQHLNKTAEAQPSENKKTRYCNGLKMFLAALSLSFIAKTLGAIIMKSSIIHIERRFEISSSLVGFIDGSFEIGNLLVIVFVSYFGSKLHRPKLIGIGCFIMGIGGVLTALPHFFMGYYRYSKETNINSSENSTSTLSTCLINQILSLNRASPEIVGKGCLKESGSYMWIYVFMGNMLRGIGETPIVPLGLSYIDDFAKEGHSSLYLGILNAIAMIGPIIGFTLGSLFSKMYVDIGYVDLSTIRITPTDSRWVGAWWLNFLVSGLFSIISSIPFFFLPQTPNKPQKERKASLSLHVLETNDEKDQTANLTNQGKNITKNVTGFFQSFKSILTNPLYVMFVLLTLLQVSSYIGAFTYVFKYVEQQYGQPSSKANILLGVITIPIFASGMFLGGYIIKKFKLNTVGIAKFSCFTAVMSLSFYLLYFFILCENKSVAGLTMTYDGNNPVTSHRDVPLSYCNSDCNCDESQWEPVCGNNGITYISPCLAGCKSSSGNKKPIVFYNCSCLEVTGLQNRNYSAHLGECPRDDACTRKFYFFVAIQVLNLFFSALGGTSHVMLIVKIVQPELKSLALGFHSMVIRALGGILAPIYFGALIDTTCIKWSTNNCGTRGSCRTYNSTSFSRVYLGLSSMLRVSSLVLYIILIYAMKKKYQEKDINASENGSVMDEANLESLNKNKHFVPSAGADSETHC
# LYN kinase = LYN kinase (Homo sapiens, UniProt P07948); assay: Kinase hotspot assay against LYN kinase; assay type: biochemical; details: for Inhibition of LYN kinase activity: 10-dose curve from 50 μM, 10 μM ATP
# LYN kinase, sequence (P07948 whole entry): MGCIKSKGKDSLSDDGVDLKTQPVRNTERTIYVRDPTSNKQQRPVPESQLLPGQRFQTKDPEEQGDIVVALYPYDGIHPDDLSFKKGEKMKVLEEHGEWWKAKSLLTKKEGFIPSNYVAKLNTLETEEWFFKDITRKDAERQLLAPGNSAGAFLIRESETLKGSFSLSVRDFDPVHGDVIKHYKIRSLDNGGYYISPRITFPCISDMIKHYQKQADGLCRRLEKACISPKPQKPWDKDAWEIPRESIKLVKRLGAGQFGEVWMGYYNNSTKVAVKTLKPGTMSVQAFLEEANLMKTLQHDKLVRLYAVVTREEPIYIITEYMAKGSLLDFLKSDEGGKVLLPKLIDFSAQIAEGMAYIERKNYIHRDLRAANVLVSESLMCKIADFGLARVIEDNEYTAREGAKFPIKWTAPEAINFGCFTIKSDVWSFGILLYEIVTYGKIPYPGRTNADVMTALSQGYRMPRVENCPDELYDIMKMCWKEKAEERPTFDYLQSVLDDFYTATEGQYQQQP
# OATP1B1 [2] = molecular target: T1, OATP1B1; assay: Cellular accumulation of 3H-lapatinib; assay type: in vitro ADME; details: 3H-lapatinib 1 μM
# OATP1B1 [3] = details: ref prescribing information; cited from earlier work
# [4] = cited from earlier work
# PKC = details: concentrations of nilotinib used in the study; cited from earlier work
# OATP1B1 [5] = molecular target: T1, OATP1B1; assay: OATP1B1-dependent uptake of 3H-EβG in human plateable hepatocytes; assay type: cell-based; details: 10 μM, 15 min pre-incubation; 3H-EβG 1 μM, 2 minutes
# OATP1B1 [6] = assay: Mass spectrometric analysis of OATP1B1 tyrosine phosphorylation; assay type: cell-based, human; details: 10 μM nilotinib 15 minutes
# OATP1B1 [7] = assay: Surface expression of OATP1B1 by biotinylation; assay type: cell-based, human; details: 10 μM nilotinib
compound,measurement,setting,value
COc1cc2nccc(Oc3ccc(NC(=O)C4(C(=O)Nc5ccc(F)cc5)CC4)cc3)c2cc1OC [cabozantinib],Reduction of OATP1B1 function,OATP1B1 [1],> 75%
same,pIC50,LYN kinase,6.16 to 7.82
CS(=O)(=O)CCNCc1ccc(-c2ccc3ncnc(Nc4ccc(OCc5cccc(F)c5)c(Cl)c4)c3c2)o1 [lapatinib],OATP1B1 substrate status,OATP1B1 [2],transported substrate of OATP1B1
same,Inhibition of LYN kinase activity,LYN kinase,did not inhibit
same,OATP1B1 substrate/inhibitor status per prescribing information,OATP1B1 [3],can reduce OATP1B1 function
CC(=O)Nc1cccc(-n2c(=O)n(C3CC3)c(=O)c3c(Nc4ccc(I)cc4F)n(C)c(=O)c(C)c32)c1 [trametinib],Mechanism of OATP1B1 inhibition,OATP1B1 [1],competitive
same,Inhibition of LYN kinase activity,LYN kinase,did not inhibit
Cc1ccc(Nc2nccc(N(C)c3ccc4c(C)n(C)nc4c3)n2)cc1S(N)(=O)=O [pazopanib],Effect on systemic concentrations of the OATP1B1 substrate rosuvastatin,[4],increase the systemic concentrations
Cc1cn(-c2cc(NC(=O)c3ccc(C)c(Nc4nccc(-c5cccnc5)n4)c3)cc(C(F)(F)F)c2)cn1 [nilotinib],Mechanism of OATP1B1 inhibition,OATP1B1 [1],predominantly non-competitive
same,Reduction of OATP1B1 function,OATP1B1 [1],> 75%
same,Effect on PKC activity,PKC,do not affect PKC activity
same,Effect on OATP1B1-dependent transport ex vivo in human hepatocytes,OATP1B1 [5],reduces OATP1B1-dependent transport
same,Effect on overall tyrosine phosphorylation of OATP1B1,OATP1B1 [6]; overexpressing HEK293 cells,no significant effect
same,Effect on OATP1B1 phosphorylation at Y645,OATP1B1 [6]; P<0.05,significantly reduced
same,Effect on OATP1B1 phosphorylation of Y640 alone,"OATP1B1 [6]; trend, P = 0.11",not significantly reduced
same,Effect on membrane surface expression of OATP1B1,OATP1B1 [7],not associated with significantly reduced membrane surface expression
CNC(=O)c1ccccc1Sc1ccc2c(/C=C/c3ccccn3)n[nH]c2c1 [axitinib],Reduction of OATP1B1 function,OATP1B1 [1],> 75%
CNC(=O)c1cc(Oc2ccc(NC(=O)Nc3ccc(Cl)c(C(F)(F)F)c3)cc2)ccn1 [sorafenib],Reduction of OATP1B1 function,OATP1B1 [1],> 75%
CC(C)(C)c1nc(-c2cccc(NS(=O)(=O)c3c(F)cccc3F)c2F)c(-c2ccnc(N)n2)s1 [dabrafenib],Reduction of OATP1B1 function,OATP1B1 [1],> 75%
same,Effect on systemic concentrations of the OATP1B1 substrate rosuvastatin,[4],increase the systemic concentrations
O=C(Nc1cnn2ccc(N3CCC[C@@H]3c3cc(F)ccc3F)nc12)N1CC[C@H](O)C1 [larotrectinib],OATP1B1 substrate/inhibitor status per prescribing information,OATP1B1 [3],neither a substrate nor an inhibitor of OATP1B1

# — article PMC8358987 (Clinical cancer research : an official journal of the …, 2021)
